Reference: US20090111801A1, “SUBSTITUTED PYRAZINONE DERIVATIVES FOR USE AS A MEDICINE” (Janssen Pharmaceutica N.V., priority 2006, published 2009)
Structures can show the parent of a compound that is named as a salt.

How the values were obtained:
hα2C receptor = biological target: T1, hα2C receptor (Homo sapiens, UniProt P18825); experiment: Radioligand binding experiment for α2C-adrenoceptor ([3H]raulwolscine, CHO cell membranes); settings: [3H]raulwolscine binding, read-out: h-α2C pIC50 (converted)
T1 construct: expressed in transfected cells; host or cells: CHO cells, stably transfected; membrane preparation
T1 sequence (P18825 1-462): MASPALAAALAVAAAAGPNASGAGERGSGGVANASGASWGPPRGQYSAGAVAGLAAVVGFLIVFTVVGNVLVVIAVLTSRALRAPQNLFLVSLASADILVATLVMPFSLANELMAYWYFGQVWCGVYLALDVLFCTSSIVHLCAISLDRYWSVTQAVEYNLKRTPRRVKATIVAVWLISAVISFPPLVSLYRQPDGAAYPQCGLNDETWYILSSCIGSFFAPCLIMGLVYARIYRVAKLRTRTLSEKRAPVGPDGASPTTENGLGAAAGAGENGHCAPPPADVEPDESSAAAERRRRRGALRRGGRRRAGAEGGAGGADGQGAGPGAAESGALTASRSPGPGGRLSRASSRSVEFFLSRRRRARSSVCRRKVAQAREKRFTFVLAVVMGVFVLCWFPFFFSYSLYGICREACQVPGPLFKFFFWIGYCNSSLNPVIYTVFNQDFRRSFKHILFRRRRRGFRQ

5HT-Transporter = biological target: T2, 5HT-Transporter (Homo sapiens, UniProt P31645); experiment: Binding experiment for the 5HT-transporter ([3H]paroxetine, human platelet membranes); settings: [3H]paroxetine 0.5 nM, read-out: h-5HTT pIC50 (converted)
T2 construct: Human platelet membranes (Oceanix Biosciences Corporation, Hanover, Md., USA) were thawed; tissue Oceanix Biosciences Corporation, Hanover, Md., USA; host or cells: human platelet membranes
T2 sequence (P31645 whole entry): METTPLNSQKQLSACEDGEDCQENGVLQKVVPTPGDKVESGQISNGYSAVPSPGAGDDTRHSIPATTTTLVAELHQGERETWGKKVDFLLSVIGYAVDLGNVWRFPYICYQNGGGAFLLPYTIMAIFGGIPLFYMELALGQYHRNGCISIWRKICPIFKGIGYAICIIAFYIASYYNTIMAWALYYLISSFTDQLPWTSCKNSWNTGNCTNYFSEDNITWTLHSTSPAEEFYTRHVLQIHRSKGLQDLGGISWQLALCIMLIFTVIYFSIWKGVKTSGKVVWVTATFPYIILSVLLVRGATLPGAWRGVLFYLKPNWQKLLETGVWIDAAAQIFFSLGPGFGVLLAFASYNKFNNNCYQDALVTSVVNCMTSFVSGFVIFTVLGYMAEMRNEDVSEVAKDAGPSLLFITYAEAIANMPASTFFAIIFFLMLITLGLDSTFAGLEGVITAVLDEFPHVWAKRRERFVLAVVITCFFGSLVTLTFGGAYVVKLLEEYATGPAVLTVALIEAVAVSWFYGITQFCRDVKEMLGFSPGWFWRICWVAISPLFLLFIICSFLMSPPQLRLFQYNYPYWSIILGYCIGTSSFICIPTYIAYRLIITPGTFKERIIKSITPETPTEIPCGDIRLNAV
Procedure, shortened: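 Filter-bound radioactivity from human platelet membranes incubated with [3H]paroxetine and test compound (buffer Tris-HCl 50 mM, 120 mM NaCl, 5 mM KCl) was counted.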

hα2A receptor = biological target: T3, hα2A receptor (Homo sapiens, UniProt P08913); experiment: Radioligand binding experiment for α2A-adrenoceptor ([3H]raulwolscine, CHO cell membranes); settings: [3H]raulwolscine binding, read-out: h-α2A pIC50 (converted)
T3 construct: expressed in transfected cells; host or cells: CHO cells, stably transfected; membrane preparation
T3 sequence (P08913 1-465): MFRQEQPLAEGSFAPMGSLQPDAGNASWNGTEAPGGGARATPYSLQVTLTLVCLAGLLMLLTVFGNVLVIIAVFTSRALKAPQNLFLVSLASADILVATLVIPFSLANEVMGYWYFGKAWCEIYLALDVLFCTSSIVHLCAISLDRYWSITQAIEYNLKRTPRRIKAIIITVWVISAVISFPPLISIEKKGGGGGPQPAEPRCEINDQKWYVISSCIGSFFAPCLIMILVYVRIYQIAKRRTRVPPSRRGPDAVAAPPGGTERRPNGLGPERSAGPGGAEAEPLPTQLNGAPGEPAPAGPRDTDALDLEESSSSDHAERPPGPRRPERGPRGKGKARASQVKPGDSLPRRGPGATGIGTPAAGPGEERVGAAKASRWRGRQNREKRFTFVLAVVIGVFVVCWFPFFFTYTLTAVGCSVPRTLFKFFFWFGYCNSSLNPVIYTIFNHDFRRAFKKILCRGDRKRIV

melting point [°C] | IC50 (hα2C receptor) [nM] | IC50 (5HT-Transporter) [nM] | IC50 (hα2A receptor) [nM] | Structure (SMILES)
231 | – | – | – | C/C(=C\c1ccccc1)CN1CCC(Nc2nccn(Cc3ccc(CN)cc3)c2=O)CC1 (as salt: HCl) [1-7]
270 | – | – | – | C/C(=C\c1ccccc1)CN1CCC(Nc2nccn(CCCNCc3ccccc3)c2=O)CC1 (as salt: HCl) [1-47]
294 | – | – | – | C/C(=C\c1ccccc1)CN1CCC(Nc2nccn(CCN3CCCCC3)c2=O)CC1 (as salt: HCl) [2-4]
67 | – | – | – | C/C(=C\c1ccccc1)CN1CCC(Nc2nccn(CC#CCN3C(=O)c4ccccc4C3=O)c2=O)CC1 (as salt: trifluoroacetate) [2-54]
286 | 2.51 | 398 | 12.6 | C/C(=C\c1ccccc1)CN1CCC(Nc2nccn(Cc3ccc(CN)cc3)c2=O)CC1 [1-6]
254 | – | 6310 | 63.1 | C/C(=C\c1ccccc1)CN1CCC(Nc2nccn(CCCN(C)C)c2=O)CC1 [1-14]
128 | 15.8 | > 10000 | 100 | C/C(=C\c1ccccc1)CN1CCC(Nc2nccn(CC(=O)N(C)C)c2=O)CC1 [1-16]
160 | 3.98 | 1260 | 79.4 | CC(=O)CNCCCn1ccnc(NC2CCN(C/C(C)=C/c3ccccc3)CC2)c1=O [1-37]
115 | 2 | 501 | 20 | C/C(=C\c1ccccc1)CN1CCC(Nc2nccn(-c3ccc(CN(C)CCN(C)C)cc3)c2=O)CC1 [1-110]
103 | 31.6 | 501 | 126 | C/C(=C\c1ccccc1)CN1CCC(Nc2nccn(Cc3ccc(CNC(=O)c4ccco4)cc3)c2=O)CC1 [1-152]
128 | 25.1 | 794 | 63.1 | C/C(=C\c1ccccc1)CN1CCC(Nc2nccn(Cc3ccc(CNS(=O)(=O)c4ccccc4)cc3)c2=O)CC1 [1-159]
110 | 25.1 | 1000 | 158 | CC(=O)c1ccc(S(=O)(=O)NCc2ccc(Cn3ccnc(NC4CCN(C/C(C)=C/c5ccccc5)CC4)c3=O)cc2)cc1 [1-165]
170 | 6.31 | 5010 | 126 | C/C(=C\c1ccccc1)CN1CCC(Nc2nccn(CC(=O)N3CCCCC3)c2=O)CC1 [2-5]
99 | 126 | 1260 | 251 | C/C(=C\c1ccccc1)CN1CCC(Nc2nccn(Cc3ccc(OC(F)(F)F)cc3)c2=O)CC1 [3-15]
112 | 15.8 | 398 | 158 | C/C(=C\c1ccccc1)CN1CCC(Nc2nccn(Cc3ccccc3CS(=O)(=O)c3ccccc3)c2=O)CC1 [4-3]
123 | 31.6 | 631 | 126 | C/C(=C\c1ccccc1)CN1CCC(Nc2nccn(Cc3ccc([N+](=O)[O-])cc3)c2=O)CC1 [5-25]
107 | 31.6 | 2000 | 63.1 | C/C(=C\c1ccccc1)CN1CCC(Nc2nccn(Cc3cc(C)on3)c2=O)CC1 [6-3]
210 | 6.31 | 1000 | 39.8 | C/C(=C\c1ccccc1)CN1CCC(Nc2nccn(-c3ccsc3)c2=O)CC1 [6-4]
126 | 12.6 | 2000 | 31.6 | C=CCn1ccnc(NC2CCN(C/C(C)=C/c3ccccc3)CC2)c1=O [7-11]
– | 200 | 1000 | 501 | O=c1c(NC2CCN(C/C=C/c3ccccc3)CC2)nccn1Cc1cccc(Br)c1 [16-16]
– | 316 | 794 | 501 | O=c1c(NC2CCN(C/C=C/c3ccccc3)CC2)nccn1Cc1ccc(Br)cc1 [16-17]
– | 251 | 398 | 251 | O=c1c(NC2CCN(C/C=C/c3ccccc3)CC2)nccn1Cc1ccc2ccccc2c1 [16-18]
– | 316 | 5010 | 1580 | O=c1c(NC2CCN(C/C=C/c3ccccc3)CC2)nccn1CC1CCCCO1 (stereo not drawn) [16-19]
– | 251 | > 10000 | 2000 | O=c1c(NC2CCN(C/C=C/c3ccccc3)CC2)nccn1Cc1ccncc1 [16-20]
– | 126 | 1000 | 501 | O=c1c(NC2CCN(C/C=C/c3ccccc3)CC2)nccn1Cc1ccc2ccccc2n1 [16-21]
– | 316 | 1260 | 631 | O=c1c(NC2CCN(C/C=C/c3ccccc3)CC2)nccn1CC1CCCCC1 [16-23]
– | 316 | > 10000 | 1000 | CC(=O)Cn1ccnc(NC2CCN(C/C=C/c3ccccc3)CC2)c1=O [16-24]
– | 158 | > 10000 | 1000 | CC(C)(C)C(=O)Cn1ccnc(NC2CCN(C/C=C/c3ccccc3)CC2)c1=O [16-25]
– | 200 | 316 | 1000 | C/C(=C\c1ccccc1)CN1CCC(Nc2nc(Cl)c(-c3cccc(Br)c3)[nH]c2=O)CC1 [17-1]
– | 501 | 1580 | 794 | COc1ccc(Cn2c(-c3cccc(Br)c3)c(Cl)nc(NC3CCN(C/C(C)=C/c4ccccc4)CC3)c2=O)cc1 [17-2]
